In ChEMBL document CHEMBL4814006, “Novel amino substituted tetracyclic imidazo[4,5-b]pyridine derivatives: Design, synthesis, antiproliferative activity and DNA/RNA binding study” (Eur J Med Chem, 2021):
Active and inactive are the calls of the source. The rule behind the calls is not given here.

Key:
MCF7 = test: Antiproliferative activity against human MCF7 cells assessed as inhibition of cell growth incubated for 72 hrs by MTT assay; type: functional, cell-based; conditions: MCF7, 72 h
[1] = tested on: Poly(dG-dC)oligonucleotide; test: Binding affinity to poly(dGdC)2 DNA (unknown origin) assessed as ratio of fluorescence intensity of compound-polynucleotide complex to fluorescence intensity of compound in sodium cacodylate buffer at pH 7 by fluorescence spectroscopy based Scatchard method; type: nucleic-acid assay
[2] = tested on: Poly(dA-dU)oligonucleotide; test: Binding affinity to polyA-polyU RNA (unknown origin) assessed as ratio of fluorescence intensity of compound-polynucleotide complex to fluorescence intensity of compound in sodium cacodylate buffer at pH 7 by fluorescence spectroscopy based Scatchard method; type: nucleic-acid assay
Calf thymus DNA [3] = test: Binding affinity to calf thymus DNA assessed as binding constant in sodium cacodylate buffer at pH 7 by fluorescence spectroscopy; conditions: Bos taurus
NCI-H460 = test: Antiproliferative activity against human NCI-H460 cells assessed as inhibition of cell growth incubated for 72 hrs by MTT assay; type: functional, cell-based; conditions: NCI-H460, 72 h
Quadruplex DNA [4] = test: Binding affinity to human Tel22 G quadruplex DNA assessed as binding constant in sodium cacodylate buffer at pH 7 at binding stoichiometry ratio of 1:1 by fluorescence spectroscopy; type: nucleic-acid assay
[5] = tested on: Poly(dA-dT)oligonucleotide; test: Binding affinity to poly(dAdT)2 DNA (unknown origin) in sodium cacodylate buffer at pH 7 by CD spectroscopy; type: nucleic-acid assay
[6] = tested on: Poly(dG-dC)oligonucleotide; test: Binding affinity to poly(dGdC)2 DNA (unknown origin) assessed as binding constant in sodium cacodylate buffer at pH 7 by fluorescence spectroscopy; type: nucleic-acid assay
Calf thymus DNA [7] = test: Binding affinity to calf thymus DNA assessed as ratio of bound compound to polynucleotide phosphate in sodium cacodylate buffer at pH 7 by fluorescence spectroscopy based Scatchard analysis; conditions: Bos taurus
Calf thymus DNA [8] = test: Binding affinity to calf thymus DNA assessed as ratio of fluorescence intensity of compound-polynucleotide complex to fluorescence intensity of compound in sodium cacodylate buffer at pH 7 by fluorescence spectroscopy based Scatchard method; conditions: Bos taurus
[9] = tested on: Poly(dA-dU)oligonucleotide; test: Binding affinity to polyA-polyU RNA (unknown origin) assessed as binding constant in sodium cacodylate buffer at pH 7 by fluorescence spectroscopy; type: nucleic-acid assay
Quadruplex DNA [10] = test: Binding affinity to human Tel22 G quadruplex DNA in sodium cacodylate buffer at pH 7 by CD spectroscopy; type: nucleic-acid assay
[11] = tested on: Poly(dA-dU)oligonucleotide; test: Binding affinity to polyA-polyU RNA (unknown origin) assessed as change in melting temperature in sodium cacodylate buffer at pH 7 at compound:polynucleotide concentration ratio of 0.3 by UV/vis spectrophotometric analysis; type: nucleic-acid assay
[12] = tested on: Poly(dA-dT)oligonucleotide; test: Binding affinity to poly(dAdT)2 DNA (unknown origin) assessed as ratio of bound compound to polynucleotide phosphate in sodium cacodylate buffer at pH 7 by fluorescence spectroscopy based Scatchard method; type: nucleic-acid assay
HEK293 = test: Cytotoxicity against human HEK293 cells assessed as inhibition of cell growth incubated for 72 hrs by MTT assay; type: cell-based; conditions: HEK293, 72 h
HCT-116 = test: Antiproliferative activity against human HCT-116 cells assessed as inhibition of cell growth incubated for 72 hrs by MTT assay; type: functional, cell-based; conditions: HCT-116, 72 h
[13] = tested on: Poly(dA-dU)oligonucleotide; test: Binding affinity to polyA-polyU RNA (unknown origin) in sodium cacodylate buffer at pH 7 by CD spectroscopy; type: nucleic-acid assay
[14] = tested on: Poly(dG-dC)oligonucleotide; test: Binding affinity to poly(dGdC)2 DNA (unknown origin) in sodium cacodylate buffer at pH 7 by CD spectroscopy; type: nucleic-acid assay
[15] = tested on: Poly(dA-dT)oligonucleotide; test: Binding affinity to poly(dAdT)2 DNA (unknown origin) assessed as binding constant in sodium cacodylate buffer at pH 7 by fluorescence spectroscopy; type: nucleic-acid assay
[16] = tested on: Poly(dG-dC)oligonucleotide; test: Binding affinity to poly(dGdC)2 DNA (unknown origin) assessed as ratio of bound compound to polynucleotide phosphate in sodium cacodylate buffer at pH 7 by fluorescence spectroscopy based Scatchard method; type: nucleic-acid assay
[17] = tested on: Poly(dA-dT)oligonucleotide; test: Binding affinity to poly(dAdT)2 DNA (unknown origin) assessed as ratio of fluorescence intensity of compound-polynucleotide complex to fluorescence intensity of compound in sodium cacodylate buffer at pH 7 by fluorescence spectroscopy based Scatchard method; type: nucleic-acid assay
Calf thymus DNA [18] = test: Binding affinity to calf thymus DNA assessed as change in melting temperature in sodium cacodylate buffer at pH 7 at compound:polynucleotide concentration ratio of 0.3 by UV/Vis spectrophotometric analysis; type: nucleic-acid assay; conditions: Bos taurus
[19] = tested on: Poly(dA-dU)oligonucleotide; test: Binding affinity to polyA-polyU RNA (unknown origin) assessed as ratio of bound compound to polynucleotide phosphate in sodium cacodylate buffer at pH 7 by fluorescence spectroscopy based Scatchard method; type: nucleic-acid assay
[20] = tested on: Poly(dA-dT)oligonucleotide; test: Binding affinity to poly(dAdT)2 DNA (unknown origin) assessed as change in melting temperature in sodium cacodylate buffer at pH 7 at compound:polynucleotide concentration ratio of 0.3 by UV/Vis spectrophotometric analysis; type: nucleic-acid assay
Quadruplex DNA [21] = test: Binding affinity to human Tel22 G quadruplex DNA assessed as ratio of fluorescence intensity of compound-polynucleotide complex to fluorescence intensity of compound in sodium cacodylate buffer at pH 7 at binding stoichiometry ratio of 1:1 by fluorescence spectroscopy; type: nucleic-acid assay
Quadruplex DNA [22] = test: Binding affinity to human Tel22 G quadruplex DNA assessed as change in melting temperature in sodium cacodylate buffer at pH 7 by UV/Vis spectrophotometric analysis; type: nucleic-acid assay
Quadruplex DNA [23] = test: Binding affinity to human Tel22 G quadruplex DNA assessed as ratio of fluorescence intensity of compound-polynucleotide complex to fluorescence intensity of compound in sodium cacodylate buffer at pH 7 at binding stoichiometry ratio of 1:2 by fluorescence spectroscopy; type: nucleic-acid assay
Quadruplex DNA [24] = test: Binding affinity to human Tel22 G quadruplex DNA assessed as binding constant in sodium cacodylate buffer at pH 7 at binding stoichiometry ratio of 1:2 by fluorescence spectroscopy; type: nucleic-acid assay

Row | SMILES | IC50 (MCF7) [µM] | Ratio [1] | Ratio [2] | log Ks (Calf thymus DNA [3]) | IC50 (NCI-H460) [µM] | log Ks (Quadruplex DNA [4]) | Activity [5] | log Ks [6] | Ratio (Calf thymus DNA [7]) | Ratio (Calf thymus DNA [8]) | log Ks [9] | ΔTm [11] [°C] | Ratio [12] | IC50 (HEK293) [µM] | IC50 (HCT-116) [µM] | Activity [13] | Activity [14] | log Ks [15] | Ratio [16] | Ratio [17] | further results
1 | CN(C)CCCNc1ccc2cc(C#N)c3nc4cccnc4n3c2c1 | 0.7 | 0.4 | 0.8 | 5.5 | 0.4 | 5.48 | Active | 5.8 | 0.6 | 0.5 | 6.3 | 9.5 | 0.2 | 0.3 | 0.4 | Active | Active | 6.9 | 0.2 | 0.7 | Activity (Quadruplex DNA [10]): Active; ΔTm (Calf thymus DNA [18]): 6.6 °C; Ratio [19]: 0.1; ΔTm [20]: 18.2 °C; Ratio (Quadruplex DNA [21]): 0.7; ΔTm (Quadruplex DNA [22]): 1.9 °C
2 | CN(C)CCCNc1c(C#N)c2nc3cccnc3n2c2ccccc12 | 2.9 |  |  |  | 1.4 |  |  |  |  |  |  |  |  | 1.8 | 0.9 |  |  |  |  |  | 
3 | COc1cc([C@@H]2c3cc4c(cc3[C@@H](O[C@@H]3O[C@@H]5CO[C@@H](C)O[C@H]5[C@H](O)[C@H]3O)[C@H]3COC(=O)[C@H]23)OCO4)cc(OC)c1O [ETOPOSIDE] | 1 |  |  |  | 0.1 |  |  |  |  |  |  |  |  |  |  |  |  |  |  |  | 
4 | N#Cc1c(N2CCNCC2)c2ccc(N3CCNCC3)cc2n2c1nc1cccnc12 | 0.4 | < 0.1 | 2 | 6.3 | 0.7 | 5.04 | Active | 6.8 | 0.3 | 0.1 | 6.6 | 15 | 0.2 | 0.2 | 0.4 | Active | Active | 6.8 | 0.3 | 1.5 | Ratio (Quadruplex DNA [23]): 0.81; log Ks (Quadruplex DNA [24]): 6.85; ΔTm (Calf thymus DNA [18]): 7.5 °C; Ratio [19]: 0.1; ΔTm [20]: 14.3 °C; Ratio (Quadruplex DNA [21]): 0.77
5 | N#Cc1cc2ccc(N3CCNCC3)cc2n2c1nc1cccnc12 | 0.4 |  |  |  | 0.4 |  |  |  |  |  |  |  |  | 0.7 | 0.4 |  |  |  |  |  | 
6 | N#Cc1c(Cl)c2ccc(F)cc2n2c1nc1ncccc12 | 2 |  |  |  | ≥ 100 |  |  |  |  |  |  |  |  |  | 3.5 |  |  |  |  |  | 
7 | N#Cc1c(N2CCNCC2)c2ccc(N3CCNCC3)cc2n2c1nc1ncccc12 | ≥ 100 | 0 | 1.8 | 6.4 | ≥ 100 | 5.33 | Active | 6.6 | 0.1 | 0 | 6.5 | 13.5 | < 0.1 | > 100 | ≥ 100 | Active | Active | 6.8 | 0.2 | 1.3 | Ratio (Quadruplex DNA [23]): 0.89; log Ks (Quadruplex DNA [24]): 7.16; ΔTm (Calf thymus DNA [18]): 6.6 °C; Ratio [19]: 0.1; ΔTm [20]: 11.1 °C; Ratio (Quadruplex DNA [21]): 0.62; ΔTm (Quadruplex DNA [22]): 2.5 °C
8 | CC(C)CNc1ccc2c(NCC(C)C)c(C#N)c3nc4cccnc4n3c2c1 | 1.8 |  |  |  | 5.4 |  |  |  |  |  |  |  |  |  | 3 |  |  |  |  |  | 
9 | N#Cc1c(N2CCNCC2)c2ccccc2n2c1nc1ncccc12 | 3 |  |  |  | 7 |  |  |  |  |  |  |  |  |  | 3.5 |  |  |  |  |  | 
10 | CN(C)CCCNc1ccc2cc(C#N)c3nc4ncccc4n3c2c1 | 12 | 0.4 | 0.8 | 6 | 11 | 5.35 | Active | 5.6 | 0.4 | 0.5 | 5.5 | 4.5 | 0.4 | 4 | 2.3 | Active | Active | 6.4 | 0.4 | 0.8 | Activity (Quadruplex DNA [10]): Active; ΔTm (Calf thymus DNA [18]): 4.2 °C; Ratio [19]: 0.4; ΔTm [20]: 9.9 °C; Ratio (Quadruplex DNA [21]): 0.66; ΔTm (Quadruplex DNA [22]): 2 °C
11 | N#Cc1cc2ccc(N3CCCCC3)cc2n2c1nc1cccnc12 | 3 |  |  |  | ≥ 100 |  |  |  |  |  |  |  |  |  | 5.5 |  |  |  |  |  | 
12 | N#Cc1cc2ccc(F)cc2n2c1nc1ncccc12 | ≥ 100 |  |  |  | ≥ 100 |  |  |  |  |  |  |  |  |  | ≥ 100 |  |  |  |  |  | 
13 | N#Cc1c(N2CCCCC2)c2ccccc2n2c1nc1ncccc12 | ≥ 100 |  |  |  | ≥ 100 |  |  |  |  |  |  |  |  |  | ≥ 100 |  |  |  |  |  | 
